Assay [1] has as its target EGFR del19/T790M/C797S (Homo sapiens, UniProt P00533, C797S/DEL746-750/T790M). The experiment in a line: Biochemical EGFR kinase assay (Lance Ultra TR-FRET), triple mutant del19/T790M/C797S. An outline of the steps: (§1)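 Step 1: compound in kinase buffer, 0.003–10 μM. Step 2: kinase reaction 1 h at room temperature. Step 4: TR-FRET read at 615/665 nm; IC50 calculated.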
(In general: TR-FRET usually uses a lanthanide donor and a delayed reading to cut background.)

The target in assay [2] is EGFR wildtype (Homo sapiens, UniProt P00533). Briefly: Biochemical EGFR kinase assay (Lance Ultra TR-FRET), wildtype. In outline: as §1
Assay [3] deals with EGFR del19/C797S (Homo sapiens, UniProt P00533, C797S/DEL746-750). Briefly: Biochemical EGFR kinase assay (Lance Ultra TR-FRET), double mutant del19/C797S. An outline of the steps: as §1
The target in assay [4] is EGFR L858R/T790M/C797S (Homo sapiens, UniProt P00533, C797S/L858R/T790M). The experiment in a line: Biochemical EGFR kinase assay (Lance Ultra TR-FRET), triple mutant L858R/T790M/C797S. An outline of the steps:
as §1

For assay [5], the target named is EGFR L858R/C797S (Homo sapiens, UniProt P00533, C797S/L858R). The experiment in a line: Biochemical EGFR kinase assay (Lance Ultra TR-FRET), double mutant L858R/C797S. An outline of the steps: as §1
Where [6] appears, read: Km ATP, read-out: IC50 del19/T790M/C797S (nM) Km ATP.
[7] abbreviates: Km ATP, read-out: IC50 WT (nM) Km ATP.
[8] abbreviates: Km ATP, read-out: IC50 del19/C797S (nM) Km ATP.
[9] abbreviates: Km ATP, read-out: IC50 L858R/T790M/C797S (nM) Km ATP.
Setting [10] is: Km ATP, read-out: IC50 L858R/C797S (nM) Km ATP.
The mark [11] stands for this setting: IC50 del19/T790M/C797S (nM) 100 μM ATP, 100 μM ATP.
Where [12] appears, read: IC50 WT (nM) 100 μM ATP, 100 μM ATP.
Setting [13] is: IC50 del19/C797S (nM) 100 μM ATP, 100 μM ATP.
Where [14] appears, read: IC50 L858R/T790M/C797S (nM) 100 μM ATP, 100 μM ATP.
[15] abbreviates: IC50 L858R/C797S (nM) 100 μM ATP, 100 μM ATP.
[16] abbreviates: IC50 del19/T790M/C797S, 100 μM ATP.
Setting [17] is: IC50 L858R/T790M/C797S, 100 μM ATP.
The mark [18] stands for this setting: ATP at Km, read-out: IC50 del19/T790M/C797S, Km ATP.
Where [19] appears, read: ATP at Km, read-out: IC50 WT, Km ATP.
The mark [20] stands for this setting: ATP at Km, read-out: IC50 del19/C797S, Km ATP.
Setting [21] is: ATP at Km, read-out: IC50 L858R/T790M/C797S, Km ATP.
Setting [22] is: ATP at Km, read-out: IC50 L858R/C797S, Km ATP.

SMILES strings stand for the structures. pIC50: −log10 of the molar value. Like-named read-outs stand apart in the source and are kept apart here.

Chain of EGFR L858R/T790M/C797S (P00533 25-1210 T790M/C797S/L858R): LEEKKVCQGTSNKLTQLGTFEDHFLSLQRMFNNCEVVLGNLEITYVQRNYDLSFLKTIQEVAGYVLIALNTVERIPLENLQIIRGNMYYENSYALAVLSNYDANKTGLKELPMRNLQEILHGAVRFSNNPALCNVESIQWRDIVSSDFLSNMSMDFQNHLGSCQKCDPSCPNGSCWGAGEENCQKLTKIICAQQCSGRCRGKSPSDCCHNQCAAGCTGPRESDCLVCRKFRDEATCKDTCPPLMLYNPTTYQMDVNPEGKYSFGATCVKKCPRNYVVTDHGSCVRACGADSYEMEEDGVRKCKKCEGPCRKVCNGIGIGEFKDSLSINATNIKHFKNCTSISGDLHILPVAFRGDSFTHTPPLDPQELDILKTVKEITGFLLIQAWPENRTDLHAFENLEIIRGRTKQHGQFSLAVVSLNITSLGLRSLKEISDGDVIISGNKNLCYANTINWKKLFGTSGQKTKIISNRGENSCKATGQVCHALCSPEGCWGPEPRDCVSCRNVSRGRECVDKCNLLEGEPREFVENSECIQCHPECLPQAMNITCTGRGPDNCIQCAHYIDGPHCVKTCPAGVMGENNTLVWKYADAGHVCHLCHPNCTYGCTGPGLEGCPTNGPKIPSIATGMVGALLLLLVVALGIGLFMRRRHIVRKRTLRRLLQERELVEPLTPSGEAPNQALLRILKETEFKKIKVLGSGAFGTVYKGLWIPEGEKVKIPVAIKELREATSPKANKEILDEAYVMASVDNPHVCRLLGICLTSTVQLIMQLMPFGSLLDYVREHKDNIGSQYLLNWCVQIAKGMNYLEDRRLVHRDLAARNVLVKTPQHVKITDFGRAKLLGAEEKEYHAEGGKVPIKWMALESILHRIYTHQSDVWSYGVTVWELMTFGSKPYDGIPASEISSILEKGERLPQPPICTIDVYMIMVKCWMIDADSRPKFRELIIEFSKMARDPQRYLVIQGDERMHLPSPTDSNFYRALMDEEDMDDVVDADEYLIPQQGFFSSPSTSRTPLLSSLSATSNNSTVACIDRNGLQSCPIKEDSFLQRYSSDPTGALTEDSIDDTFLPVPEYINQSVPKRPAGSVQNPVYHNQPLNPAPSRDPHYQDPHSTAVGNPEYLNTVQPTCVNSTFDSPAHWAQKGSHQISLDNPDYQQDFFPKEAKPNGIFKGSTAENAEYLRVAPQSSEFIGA
Chain of EGFR wildtype (P00533 25-1210): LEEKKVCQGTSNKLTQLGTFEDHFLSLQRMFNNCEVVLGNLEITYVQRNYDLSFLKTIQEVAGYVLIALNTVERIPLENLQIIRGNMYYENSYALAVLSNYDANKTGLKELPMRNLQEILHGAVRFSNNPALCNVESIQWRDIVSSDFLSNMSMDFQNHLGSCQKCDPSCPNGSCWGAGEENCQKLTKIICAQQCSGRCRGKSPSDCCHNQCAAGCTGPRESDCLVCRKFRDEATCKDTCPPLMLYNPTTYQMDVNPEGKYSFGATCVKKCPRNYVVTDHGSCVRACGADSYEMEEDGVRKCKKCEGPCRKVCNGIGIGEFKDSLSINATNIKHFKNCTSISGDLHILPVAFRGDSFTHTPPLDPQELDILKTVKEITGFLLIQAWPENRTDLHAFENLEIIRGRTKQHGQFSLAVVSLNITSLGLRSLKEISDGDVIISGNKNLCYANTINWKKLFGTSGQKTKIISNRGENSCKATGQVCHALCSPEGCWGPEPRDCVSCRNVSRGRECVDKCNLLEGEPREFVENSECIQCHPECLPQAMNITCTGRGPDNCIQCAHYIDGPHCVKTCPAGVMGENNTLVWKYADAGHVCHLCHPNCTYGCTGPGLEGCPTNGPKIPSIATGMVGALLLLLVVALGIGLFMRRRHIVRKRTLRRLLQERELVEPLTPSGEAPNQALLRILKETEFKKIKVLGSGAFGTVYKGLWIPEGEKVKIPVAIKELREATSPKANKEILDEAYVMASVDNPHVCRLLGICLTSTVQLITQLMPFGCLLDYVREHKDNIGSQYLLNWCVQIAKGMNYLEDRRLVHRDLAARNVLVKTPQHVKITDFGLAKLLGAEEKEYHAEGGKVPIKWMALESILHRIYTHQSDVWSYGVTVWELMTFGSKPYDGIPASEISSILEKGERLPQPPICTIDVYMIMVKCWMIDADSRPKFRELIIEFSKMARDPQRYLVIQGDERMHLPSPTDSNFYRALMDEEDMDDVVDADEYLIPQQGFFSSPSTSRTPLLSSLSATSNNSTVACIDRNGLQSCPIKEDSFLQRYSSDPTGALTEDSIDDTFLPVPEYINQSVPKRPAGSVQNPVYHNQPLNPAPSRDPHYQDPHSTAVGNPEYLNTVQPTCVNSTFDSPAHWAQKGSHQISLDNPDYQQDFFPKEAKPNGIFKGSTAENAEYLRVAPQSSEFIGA
Chain of EGFR del19/T790M/C797S (P00533 with tags, fused parts or gaps DEL746-750/T790M/C797S): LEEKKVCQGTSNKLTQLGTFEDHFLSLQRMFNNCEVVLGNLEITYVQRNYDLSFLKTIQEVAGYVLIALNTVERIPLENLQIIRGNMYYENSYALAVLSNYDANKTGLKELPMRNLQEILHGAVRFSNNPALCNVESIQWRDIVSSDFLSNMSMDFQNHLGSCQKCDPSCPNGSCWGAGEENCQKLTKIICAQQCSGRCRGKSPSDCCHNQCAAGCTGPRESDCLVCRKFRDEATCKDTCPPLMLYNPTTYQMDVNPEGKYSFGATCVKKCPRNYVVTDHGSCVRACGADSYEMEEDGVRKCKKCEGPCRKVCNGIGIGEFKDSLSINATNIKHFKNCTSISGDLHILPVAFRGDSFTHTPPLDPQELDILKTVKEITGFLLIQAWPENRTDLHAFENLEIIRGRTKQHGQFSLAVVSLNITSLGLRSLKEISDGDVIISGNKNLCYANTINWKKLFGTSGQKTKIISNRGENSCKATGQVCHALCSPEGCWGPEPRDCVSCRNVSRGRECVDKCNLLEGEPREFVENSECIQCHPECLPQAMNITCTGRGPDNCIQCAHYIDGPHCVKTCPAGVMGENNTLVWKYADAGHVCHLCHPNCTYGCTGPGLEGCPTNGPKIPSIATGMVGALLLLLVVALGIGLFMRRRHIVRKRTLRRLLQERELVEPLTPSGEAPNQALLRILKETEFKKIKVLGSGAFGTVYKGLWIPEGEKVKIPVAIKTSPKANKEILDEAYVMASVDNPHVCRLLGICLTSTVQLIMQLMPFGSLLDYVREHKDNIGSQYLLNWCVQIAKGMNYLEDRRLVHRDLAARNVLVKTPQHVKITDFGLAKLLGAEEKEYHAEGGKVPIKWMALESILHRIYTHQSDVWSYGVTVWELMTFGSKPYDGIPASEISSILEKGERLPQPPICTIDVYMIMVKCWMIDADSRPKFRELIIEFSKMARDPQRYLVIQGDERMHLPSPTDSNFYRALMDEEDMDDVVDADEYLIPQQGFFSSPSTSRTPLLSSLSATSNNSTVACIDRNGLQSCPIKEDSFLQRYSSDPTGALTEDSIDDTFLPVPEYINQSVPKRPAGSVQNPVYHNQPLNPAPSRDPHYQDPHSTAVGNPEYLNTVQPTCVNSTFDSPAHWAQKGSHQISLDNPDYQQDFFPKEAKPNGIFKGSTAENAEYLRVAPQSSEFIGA
Chain of EGFR del19/C797S (P00533 with tags, fused parts or gaps DEL746-750/C797S): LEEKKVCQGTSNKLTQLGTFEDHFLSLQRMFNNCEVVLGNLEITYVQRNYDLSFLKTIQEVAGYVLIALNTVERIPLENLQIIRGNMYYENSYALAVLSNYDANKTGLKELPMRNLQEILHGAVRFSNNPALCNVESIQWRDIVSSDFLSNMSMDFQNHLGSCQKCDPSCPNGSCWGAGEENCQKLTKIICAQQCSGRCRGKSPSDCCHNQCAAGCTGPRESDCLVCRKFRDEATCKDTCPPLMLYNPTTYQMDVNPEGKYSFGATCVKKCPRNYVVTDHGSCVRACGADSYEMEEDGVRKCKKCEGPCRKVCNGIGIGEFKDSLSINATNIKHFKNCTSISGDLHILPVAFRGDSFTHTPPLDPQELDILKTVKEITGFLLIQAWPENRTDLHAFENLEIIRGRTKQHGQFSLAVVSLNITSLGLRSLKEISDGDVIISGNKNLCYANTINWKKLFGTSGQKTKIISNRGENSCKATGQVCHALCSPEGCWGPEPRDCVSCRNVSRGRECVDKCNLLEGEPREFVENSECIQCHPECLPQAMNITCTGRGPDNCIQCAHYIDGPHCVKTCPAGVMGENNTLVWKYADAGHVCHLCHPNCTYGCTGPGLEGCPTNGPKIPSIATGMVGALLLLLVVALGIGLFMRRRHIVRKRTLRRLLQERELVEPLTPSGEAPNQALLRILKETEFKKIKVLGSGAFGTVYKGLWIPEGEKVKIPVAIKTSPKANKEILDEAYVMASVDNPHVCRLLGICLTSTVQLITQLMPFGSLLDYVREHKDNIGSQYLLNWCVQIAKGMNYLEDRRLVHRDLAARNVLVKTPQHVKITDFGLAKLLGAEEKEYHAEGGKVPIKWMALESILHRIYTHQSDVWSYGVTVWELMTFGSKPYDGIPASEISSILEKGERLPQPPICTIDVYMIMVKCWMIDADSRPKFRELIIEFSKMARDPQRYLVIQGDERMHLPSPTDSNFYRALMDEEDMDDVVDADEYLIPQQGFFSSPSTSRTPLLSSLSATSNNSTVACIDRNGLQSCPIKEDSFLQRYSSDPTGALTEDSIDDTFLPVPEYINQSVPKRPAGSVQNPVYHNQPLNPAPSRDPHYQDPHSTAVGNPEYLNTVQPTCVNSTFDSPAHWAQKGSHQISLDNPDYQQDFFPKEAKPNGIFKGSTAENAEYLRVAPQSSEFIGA

For `C[C@]1(O)CC[C@@H](Nc2cc(Nc3ccnc(-c4cnn(S(=O)(=O)C5CC5)c4)n3)ncc2-c2cnc(OC3CCOCC3)cn2)CC1` [Example 148, (1s,4s)-4-((2-((2-(1-(Cyclopropylsulfonyl)-1H-pyrazol-4-yl)pyrimidin-4-yl)amino)-5-(5-((tetrahydro-2H-pyran-4-yl)oxy)pyrazin-2-yl)pyridin-4-yl)amino)-1-methylcyclohexan-1-ol], the IC50 in assay [1] (setting [6]) came out at 0.3 nM; in assay [2] (setting [7]), 15.1 nM; in assay [3] (setting [8]), 2 nM; in assay [4] (setting [9]), 0.3 nM; in assay [5] (setting [10]) it was 1 nM.
Take `CC(C)(O)[C@H]1CC[C@@H](Nc2cc(Nc3ccnc(-c4cnn(S(=O)(=O)C5CC5)c4)n3)ncc2-c2cc(N3CCC(F)(F)CC3)ccn2)CC1` [Example 103, 2-((1s,4s)-4-((6′-((2-(1-(Cyclopropylsulfonyl)-1H-pyrazol-4-yl)pyrimidin-4-yl)amino)-4-(4,4-difluoropiperidin-1-yl)-[2,3′-bipyridin]-4′-yl)amino)cyclohexyl)propan-2-ol]: the IC50 is 6.6 nM in assay [1] (setting [11]); over 10000 nM in assay [2] (setting [12]); 66.5 nM in assay [3] (setting [13]); 3.9 nM in assay [4] (setting [14]); 654 nM in assay [5] (setting [15]).
Consider `COc1cnc(-c2cnc(Nc3ccnc(-c4cnn(S(=O)(=O)C5CC5)c4)n3)cc2N[C@H]2CC[C@@](C)(O)CC2)cn1` [Example 56, (1s,4s)-4-((2-((2-(1-(Cyclopropylsulfonyl)-1H-pyrazol-4-yl)pyrimidin-4-yl)amino)-5-(5-methoxypyrazin-2-yl)pyridin-4-yl)amino)-1-methylcyclohexan-1-ol], for which the IC50 was 1.4 nM in assay [1] (setting [11]); over 10000 nM in assay [2] (setting [12]); 169 nM in assay [2] (setting [7]); 8.8 nM in assay [3] (setting [13]); 5.9 nM in assay [3] (setting [8]); 2.4 nM in assay [4] (setting [14]). In assay [5] (setting [15]), this compound registered an IC50 of 122 nM.
With `CN(C)C[C@H]1CC[C@@H](Nc2cc(Nc3ccnc(-c4cnn(S(=O)(=O)C5CC5)c4)n3)ncc2-c2cnc(OC(F)F)cn2)CC1` [Example 131, N^2-(2-(1-(Cyclopropylsulfonyl)-1H-pyrazol-4-yl)pyrimidin-4-yl)-5-(5-(difluoromethoxy)pyrazin-2-yl)-N^4-((1s,4s)-4-((dimethylamino)methyl)cyclohexyl)pyridine-2,4-diamine], the IC50 in assay [1] (setting [6]) was determined as 0.2 nM; in assay [2] (setting [7]), 8.1 nM; in assay [3] (setting [8]), 2.1 nM; in assay [4] (setting [9]), 0.1 nM; in assay [5] (setting [10]), 2.2 nM.
For the compound `O=S(=O)(C1CC1)n1cc(-c2nccc(Nc3cc(N[C@H]4CC[C@@H](CO)CC4)c(-c4ccc(N5CCCC5)cn4)cn3)n2)cn1` [Example 81, ((1s,4s)-4-((6′-((2-(1-(Cyclopropylsulfonyl)-1H-pyrazol-4-yl)pyrimidin-4-yl)amino)-5-(pyrrolidin-1-yl)-[2,3′-bipyridin]-4′-yl)amino)cyclohexyl)methanol], the IC50 in assay [1] (setting [11]) stood at 3.1 nM; in assay [1] (setting [6]), 2.4 nM; in assay [2] (setting [12]), 3650 nM; in assay [2] (setting [7]) it was 11.7 nM; in assay [3] (setting [13]), 19 nM; in assay [3] (setting [8]), 4 nM. Also, the IC50 was found to be 6 nM in assay [4] (setting [14]), 2 nM in assay [4] (setting [9]), 13 nM in assay [5] (setting [15]) and 3.3 nM in assay [5] (setting [10]).
As for `CC1(O)CCC(Nc2cc(Nc3ccnc(-c4cnn(S(=O)(=O)C5CC5)c4)n3)ncc2-c2cc(NC3CC(O)C3)ccn2)CC1` (centres unmarked) [Example 283, (1s,4s)-4-((6′-((2-(1-(Cyclopropylsulfonyl)-1H-pyrazol-4-yl)pyrimidin-4-yl)amino)-4-((3-hydroxycyclobutyl)amino)-[2,3′-bipyridin]-4′-yl)amino)-1-methylcyclohexan-1-ol], the pIC50 was 10.00 in assay [1] (setting [16]); 5.71 in assay [2] (IC50 WT, 100 μM ATP); 9.22 in assay [3] (IC50 del19/C797S, 100 μM ATP); 9.40 in assay [4] (setting [17]); 8.64 in assay [5] (IC50 L858R/C797S, 100 μM ATP).
Consider `C[C@]1(O)CC[C@@H](Nc2cc(Nc3ccnc(-c4cnn(S(=O)(=O)C5CC5)c4)n3)ncc2-c2ccc(OC(F)(F)F)cn2)CC1` [Example 194, (1s,4s)-4-((6′-((2-(1-(Cyclopropylsulfonyl)-1H-pyrazol-4-yl)pyrimidin-4-yl)amino)-5-(trifluoromethoxy)-[2,3′-bipyridin]-4′-yl)amino)-1-methylcyclohexan-1-ol], for which the pIC50 is 8.60 in assay [1] (setting [18]); 8.47 in assay [1] (setting [16]); 7.44 in assay [2] (setting [19]); under 5.00 in assay [2] (IC50 WT, 100 μM ATP); 8.26 in assay [3] (setting [20]); 7.77 in assay [3] (IC50 del19/C797S, 100 μM ATP). For the same compound, the pIC50 in assay [4] (setting [21]) is 9.22; in assay [4] (setting [17]) it was 8.66; in assay [5] (setting [22]), 8.41; in assay [5] (IC50 L858R/C797S, 100 μM ATP) it was 7.36.
As for `CC(O)(c1ccc(-c2cnc(Nc3ccnc(-c4cnn(S(=O)(=O)C5CC5)c4)n3)cc2NC2CCC(F)CC2)nc1)C(F)(F)F` (centres unmarked) [Example 266, 2-(6′-((2-(1-(Cyclopropylsulfonyl)-1H-pyrazol-4-yl)pyrimidin-4-yl)amino)-4′-((4-fluorocyclohexyl)amino)-[2,3′-bipyridin]-5-yl)-1,1,1-trifluoropropan-2-ol], the pIC50 was 7.48 in assay [1] (setting [18]); 6.77 in assay [2] (setting [19]); 7.90 in assay [3] (setting [20]); 7.73 in assay [4] (setting [21]); 7.40 in assay [5] (setting [22]).
Consider `O=S(=O)(C1CC1)n1cc(-c2nccc(Nc3cc(N[C@H]4CC[C@H](CCO)CC4)c(-c4cc(C(F)F)ccn4)cn3)n2)cn1` [Example 96, 2-((1r,4r)-4-((6′-((2-(1-(Cyclopropylsulfonyl)-1H-pyrazol-4-yl)pyrimidin-4-yl)amino)-4-(difluoromethyl)-[2,3′-bipyridin]-4′-yl)amino)cyclohexyl)ethan-1-ol], for which the IC50 was 2 nM in assay [1] (setting [11]); over 10000 nM in assay [2] (setting [12]); 84.7 nM in assay [2] (setting [7]); 224 nM in assay [3] (setting [13]); 68 nM in assay [3] (setting [8]); 0.8 nM in assay [4] (setting [14]). Besides, the IC50 in assay [4] (setting [9]) amounted to 0.7 nM; in assay [5] (setting [15]) it was 2220 nM; in assay [5] (setting [10]), 27.4 nM.
As for `CC(C)(O)c1ccc(-c2cnc(Nc3ccnc(-c4cnn(S(=O)(=O)C5CC5)c4)n3)cc2N[C@H]2CC[C@@H](CO)CC2)nc1` [Example 170, 2-(6′-((2-(1-(Cyclopropylsulfonyl)-1H-pyrazol-4-yl)pyrimidin-4-yl)amino)-4′-(((1s,4s)-4-(hydroxymethyl)cyclohexyl)amino)-[2,3′-bipyridin]-5-yl)propan-2-ol], the pIC50 in assay [1] (setting [18]) is 9.10; in assay [1] (setting [16]), 8.89; in assay [2] (IC50 WT, 100 μM ATP), 6.85; in assay [3] (setting [20]), 9.15; in assay [3] (IC50 del19/C797S, 100 μM ATP) it was 8.70; in assay [4] (setting [21]), 9.70. Also, the pIC50 is 9.05 in assay [4] (setting [17]); 9.22 in assay [5] (setting [22]); 8.68 in assay [5] (IC50 L858R/C797S, 100 μM ATP).
Regarding `O=S(=O)(C1CC1)n1cc(-c2nccc(Nc3cc(NC4CCC(CO)CC4)c(-c4ccc(N5CCOCC5)cn4)cn3)n2)cn1` (centres unmarked) [Example 57, ((1s,4s)-4-((6′-((2-(1-(Cyclopropylsulfonyl)-1H-pyrazol-4-yl)pyrimidin-4-yl)amino)-5-morpholino-[2,3′-bipyridin]-4′-yl)amino)cyclohexyl)methanol], the IC50 amounted to 1.7 nM in assay [1] (setting [11]); 636 nM in assay [2] (setting [12]); 4.8 nM in assay [2] (setting [7]); 1.7 nM in assay [3] (setting [13]); 2 nM in assay [3] (setting [8]); 1 nM in assay [4] (setting [14]). Also, the IC50 came out at 4.5 nM in assay [5] (setting [15]) and 0.7 nM in assay [5] (setting [10]).
`CN1CCC(Oc2ccc(-c3cnc(Nc4ccnc(-c5cnc6c(c5)CCCO6)n4)cc3N[C@H]3CC[C@@](C)(O)CC3)nc2)CC1` [Example 142, (1s,4s)-4-((6′-((2-(3,4-Dihydro-2H-pyrano[2,3-b]pyridin-6-yl)pyrimidin-4-yl)amino)-5-((1-methylpiperidin-4-yl)oxy)-[2,3′-bipyridin]-4′-yl)amino)-1-methylcyclohexan-1-ol]: the IC50 is 0.01 nM in assay [1] (setting [6]); 17.1 nM in assay [2] (setting [7]); 2 nM in assay [3] (setting [8]); 0.03 nM in assay [4] (setting [9]); 0.8 nM in assay [5] (setting [10]).

(Values after patent US12258328B2, “6-membered heteroaryl-containing aminopyridine compounds as EGFR inhibitors” (YUHAN CORPORATION, priority 2021, dated 2025).)
